Primed or numbered codes have the meaning given here. Where no end group is shown, it is not given here. [ ]: non-standard residue; d: D form. Dab′ = 2,3-diamino butyric acid; Nva = CCC[C@H](N)C(=O)O
Legend:
[1] = tested on: experimental dry eye (EDE) mice; assay: Corneal fluorescein staining score in experimental dry eye (EDE) mice; assay type: in vivo, C57BL/6 mice; settings: 0.01% in BSS, 3 times a day; for corneal staining (corneal irregularity) compared to untreated EDE mice: topical bilateral 2 μl/eye, score 0-4 averaged over five regions, day 5 and day 10, p-value <0.05 vs. EDE; for corneal surfaces compared to untreated normal mice (UT) and positive control globular adiponectin-treated mice (gAdipo): topical, EDE mice
Description: (§1) Experimental dry eye (EDE) was induced in 8-week old female C57BL/6 mice by subcutaneous injection of 0.5 mg/0.2 mL scopolamine hydrobromide (Sigma-Aldrich, St. Louis, Mo.) three times a day (9 AM, 1:30 PM and 6 PM). A dose of 0.3 mL scopolamine hydrobromide was administered at each injection. The mice were also exposed to an air draft and 30% ambient humidity. 6 experimental groups used in this study included: (1) untreated control mice (UT; no dry eye treatment and no topical treatment); (2) untreated EDE control mice (EDE; received no topical administration); (3) EDE control mice received a balanced salt solution (BSS); (4) EDE mice received 0.01% single chain adiponectin peptidomimetic (ADP355) in BSS; (5) EDE mice receiving 0.01% peptide dimer adiponectin peptidomimetic (ADP399) in BSS; and (6) EDE mice receiving 0.01% recombinant globular adiponectin (gAdipo) in BSS. Each group included 5 mice. EDE mice treated with BSS received topical bilateral administration of […], 3 times a day. EDE mice treated with ADP355 received topical bilateral administration of 2 μl/eye, 3 times a day. EDE mice treated with ADP-399 received topical bilateral administration of 2 μl/eye, 3 times a day. The gAdipo treated mice served as a positive treatment control. Mice were evaluated at baseline, day 5 and day 10 after the treatment initiation. In some experiments, ADP355, ADP-399 and gAdipo were resuspended in 0.01% BSA.
The severity of corneal epithelial damage was evaluated by corneal fluorescein staining. Briefly, 1% fluorescein dye (1 μl) was instilled into the eye and then the eye was washed with saline. 10 minutes after application of the dye, the eye was photographed with a slip lamp microscope using a cobalt blue light. The stained area was graded using a scoring system by two blinded observers. […] The average score from the five regions was recorded. […] In addition, the adiponectin peptidomimetic-treated mice (ADP355 and ADP-399) had corneal surfaces that were similar to those of untreated normal mice (UT) and positive control globular adiponectin-treated mice (gAdipo). The corneal surface scores in all groups at day 10 were similar to those at day 5 after treatment initiation.

[2] = tested on: experimental dry eye (EDE) mice; assay: Tear volume by phenol red thread tear test in experimental dry eye (EDE) mice; assay type: in vivo, C57BL/6 mice; settings: 0.01% in BSS, 3 times a day; for tear production, as measured by tear volume, compared to untreated or BSS treated EDE mice: topical bilateral 2 μl/eye, day 5 and day 10 after treatment initiation, p-value <0.05 vs. EDE; for difference in tear volume among those treated with ADP355, ADP399 and globular adiponectin: topical, EDE mice
Description: as §1
Tear volume was measured using a phenol red thread tear test. Briefly, a cotton thread treated with phenol red at its tip (Zone-Quick; Oasis, Glendora, Calif.) was held with jeweler's forceps and placed in the tear meniscus of the lateral canthus for 20 secs to contact tear fluid. Using a microscope, the length of the red portion (wet portion) of the thread was measured in millimeters. A standard curve was derived to convert the distance measurement into tear volume.

Substance	corneal staining (corneal irregularity) compared to untreated EDE mice [1]	corneal surfaces compared to untreated normal mice (UT) and positive control globular adiponectin-treated mice (gAdipo) [1]	tear production, as measured by tear volume, compared to untreated or BSS treated EDE mice [2]	difference in tear volume among those treated with ADP355, ADP399 and globular adiponectin [2]
(DAsn-Ile-Pro-Nva-Leu-Tyr-DSer-Phe-Ala-DSer-His-Pro)2-Dab-NH2 ([dN]IP[Nva]LY[dS]FA[dS]HP[Dab′]-NH2; also: branched dimer: two chains joined via Dab) [ADP399, linear branched dimer of ADP355]	less corneal staining	similar	higher	no significant difference
DAsn-Ile-Pro-Nva-Leu-Tyr-DSer-Phe-Ala-DSer-NH2 ([dN]IP[Nva]LY[dS]FA[dS]-NH2; N-terminus assumed; SMILES CCC[C@H](NC(=O)[C@@H]1CCCN1C(=O)[C@@H](NC(=O)[C@H](N)CC(N)=O)[C@@H](C)CC)C(=O)N[C@@H](CC(C)C)C(=O)N[C@@H](Cc1ccc(O)cc1)C(=O)N[C@H](CO)C(=O)N[C@@H](Cc1ccccc1)C(=O)N[C@@H](C)C(=O)N[C@H](CO)C(N)=O) [ADP355, single chain adiponectin peptidomimetic]	less corneal staining	similar	higher	no significant difference
